Like-named read-outs stand apart in the source and are kept apart here. One block for each compound: values may come before it.
Experiments:
[1] = Table S7; ref Meador et al. (2016); cited from earlier work
[2] = set-up: method as in US EPA Chemistry Dashboard; settings: ref US EPA Chemistry Dashboard; cited from earlier work
in vivo = settings: for concentration at 21 days: goldfish (Carassius auratus)
Excerpt: Cages were visited weekly, and fish (13/cage) were fed during the visits (20 g/cage). All animal experiments were in accordance with CCAC guidance and approved by the GLLFAS-WSTD Animal Care Committee (Government of Canada). Further details on the caging and preparation of the fish and animal care protocols are provided in Simmons et al.[32]. […] A fourth site, Jordan Harbour (JH), a widening of 20 Mile Creek adjacent to Lake Ontario near Jordan ON, served as a reference site. Mass and fork length were measured and recorded. Plasma collection and storage is described in the SI. Plasma of caged goldfish was divided for proteome, metabolome and PPCP analysis. Due to limited volumes, pooled samples of plasma from 25 individual fish (50 µL/individual) was pooled to yield one sample from at each location for PPCP analysis.
(§1) A total of 20 fish plasma samples from the pooled caged fish (7) and the wild fish (13) along with 12 water samples were selected for analysis. […] A full list of analytes is provided in Supplementary Information. Mass labelled^13C-, or deuterated surrogate internal standards were used for quantification of all analytes via the isotope dilution/surrogate standard quantitation method. Prior to extraction and/or clean-up procedures, aqueous samples were adjusted to pH 2.0, spiked with extraction surrogate standards, then adjusted to pH 4 using tetrasodium ethylenediamine-tetraacetate dihydrate. Plasma samples (2.3–2.5 g) were spiked with extraction surrogate standards, sonicated with 20 mL acetonitrile, then diluted with ultra-pure water to 200 mL. The extracts were cleaned up by solid phase extraction using Oasis HLB cartridges (Waters Ltd. Mississauga ON), filtered, and analyzed by liquid chromatography-electrospray ionization-tandem mass spectrometry (LC/ESI-MS/MS) in positive or negative ionization mode. The analysis of the complete list of analytes (SI Table S1) required a total of five instrumental runs.
(§2) Quality assurance steps included analysis of lab blanks for water and plasma along with matrix recovery spikes. […] Detection limits (DLs) were defined as lowest calibration level adjusted to the maximal sample size or 3 times the signal of the noise in the target channel converted to an equivalent sample, whichever was greater. […] Where analytes were detected in two or more samples of the same species or series of water samples, non-detect values were converted to ½ the DL value for reporting purposes.

[3] = Plasma bioaccumulation factor (BAFP), goldfish; type: in vivo, goldfish (Carassius auratus)
Procedure: Bioaccumulation factor (BAFP) was calculated as concentration in fish plasma (ng/g × 1000) divided by concentration in water (ng/L). Two widely used modeling approaches for predicting organic contaminant bioaccumulation were assessed: the BCF-BAF model for whole body BAFs[53] and the fish-plasma concentration calculation of Huggett et al.[35] modified by Berninger et al.[54]. The latter involves estimating an octanol-water partition coefficient (Kow) adjusted for fraction ionized (log D), using the pKa value to adjust log Kow[54] taking into account the pH of CPM waters. Further information on the calculation of log D, blood-water partitioning (PBW), and plasma concentrations (FPC) is given in the SI.

[4] = Procedure: Plasma from 9 individual male fish (500 µL/individual) was pooled to yield 3 samples for PPCP analysis. […] Plasma from 6 individual carp (2.3–3.5 g) from each location was selected for PPCP analysis. […] Plasma samples were frozen (−80 °C) until analysis.
as §1, §2

[5] = Table S7; ref Meador et al. (2016); cited from earlier work; remark: listed apart in the source
[6] = male, goldfish (Carassius auratus), in vivo

Compound: CNCCC(Oc1ccc(C(F)(F)F)cc1)c1ccccc1 (stereo not drawn) [Fluoxetine]
Salmon (whole body) concentration [1]: 4.9 ng/g

concentration at 21 days (in vivo; in vivo, caged goldfish plasma, range of concentrations): 7.85 to 8.35 ng/g
concentration at 21 days (in vivo; in vivo, plasma concentration, CPM1 caged): 20.9 ng/g
concentration at 21 days (in vivo; in vivo, plasma concentration, CPM2 caged): 17.6 ng/g
concentration at 21 days (in vivo; in vivo, plasma concentration, CPM3 caged): 8.2 ng/g
concentration at 21 days (in vivo; in vivo, plasma concentration, JH caged): < 16 ng/g
BAFP, CPM1 goldfish caged ([3]; CPM1): 75 L/kg
BAFP, CPM2 goldfish caged ([3]; CPM2, water sample of August 2012): 50 L/kg
BAFP, CPM3 goldfish caged ([3]; CPM3): 13 L/kg
BAFP at CPM3, wild goldfish, average ([3]; conc in fish plasma/conc in water): 38 L/kg
BAFP at CPM3, wild goldfish, range ([3]; range based on range of plasma concentrations): 37 to 40 L/kg
plasma concentration, carp, this study (mean) ([4]; in vivo): < mdl
plasma concentration, CPM wild-01 [4, 6]: 7.85 ng/g
plasma concentration, CPM wild-02 [4, 6]: 8.15 ng/g
plasma concentration, CPM wild-03 [4, 6]: 8.35 ng/g
plasma concentration, goldfish, this study (mean) [4, 6]: 8.12 ng/g wet weight or ng/mL for plasma
wild goldfish plasma, range of concentrations [4, 6]: 8.2 to 20.9 ng/g
Compound: C[C@H](O)C(=O)Nc1c(I)c(C(=O)NC(CO)CO)c(I)c(C(=O)NC(CO)CO)c1I [Iopamidol]
log Kow [2]: -2.21

Compound: Clc1ccc(COC(Cn2ccnc2)c2ccc(Cl)cc2Cl)c(Cl)c1 (stereo not drawn) [Miconazole]
Salmon (whole body) concentration [1]: 1.8 ng/g

Compound: COc1ccc(CCNCCCC(C#N)(c2ccc(OC)c(OC)c2)C(C)C)cc1OC (stereo not drawn) [Norverapam il, Norverapamil]
Sculpin (whole body) concentration [5]: 0.20 to 0.30 ng/g
Salmon (whole body) concentration [1]: 0.12 to 0.47 ng/g

Compound: COc1cc(C)c(Cc2cnc(N)nc2N)cc1OC [Orm etoprim, Ormetoprim]
Salmon (whole body) concentration [1]: 44 to 1600 ng/g

Compound: Nc1ccc(S(=O)(=O)Nc2ncccn2)cc1 [Sulfadiazine]
Salmon (whole body) concentration [1]: 0.88 ng/g

Compound: COc1cc(NS(=O)(=O)c2ccc(N)cc2)nc(OC)n1 [Sulfadim ethoxine, Sulfadimethoxine]
Salmon (whole body) concentration [1]: 0.34 to 17 ng/g

Compound: Cc1ccnc(NS(=O)(=O)c2ccc(N)cc2)n1 [Sulfam erazine, Sulfamerazine]
Salmon (whole body) concentration [1]: 0.51 ng/g

Compound: Oc1cc(Cl)ccc1Oc1ccc(Cl)cc1Cl [T riclosan, Triclosan]
Salmon (whole body) concentration [1]: 26 ng/g

Compound: CC1=C\[C@@H](O)CC(=O)Cc2nc(co2)C(=O)N2CCC=C2C(=O)O[C@H](C(C)C)[C@H](C)/C=C/C(=O)NC\C=C\1 [Virg in iam ycin M1, Virginiamycin M1]
Sculpin (whole body) concentration [5]: 8 to 34 ng/g
Salmon (whole body) concentration [1]: 10 ng/g

detection in fish plasma (in vivo; in vivo): not detected
Compound: NC(=O)N1c2ccccc2C=Cc2ccccc21 [carbamazepine]

Compound: Anhydrochlortetracycline
plasma concentration, CPM1 caged (in vivo; CPM1, 07-2014, pooled plasma, wet weight): 2.97 ng/g
plasma concentration, CPM2 caged (in vivo; CPM2, 07-2014, pooled plasma, wet weight): < 2.92 ng/g
plasma concentration, CPM3 caged (in vivo; CPM3, 07-2014, pooled plasma, wet weight): < 3.07 ng/g
plasma concentration, JH caged (in vivo; Jordan Harbour reference site, 07-2014, pooled plasma, wet weight): < 3.0 ng/g
plasma concentration, CPM wild-01 ([4]; wild goldfish sample 01, 2012, wet weight): < 2.94 ng/g
plasma concentration, CPM wild-02 ([4]; wild goldfish sample 02, 2012, wet weight): < 3.18 ng/g
plasma concentration, CPM wild-03 ([4]; wild goldfish sample 03, 2012, wet weight): < 3.13 ng/g

From publication PMC5717258, “Bioaccumulation of pharmaceuticals and personal care product chemicals in fish exposed to wastewater effluent in an urban wetland” (Scientific Reports, 2017)
